Test results as given in paper PMC11992225, “Antibacterial compounds against non-growing and intracellular bacteria” (npj Antimicrobials and Resistance, 2025).
pEC50: −log10 of the molar value. Converted amounts (≈) assume the structure as drawn. “And” between values parts separate entries of the source, which are not always exact repeats. Identical values can stand only once. Like-named read-outs stand apart in the source and are kept apart here.

Key:
[1] = test system: non-growing P. aeruginosa DSM1117; test: Dose-dependent killing analysis (CFU spot-plating) of stationary-phase P. aeruginosa; type: cell-based, Pseudomonas aeruginosa; conditions: P. aeruginosa; for log10(CFU/ml) of treated nongrowing bacteria (single replicates): before treatment 8.887
Method in brief: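 Viability by CFU: samples serially diluted 10-fold in PBS, spotted on LB agar, grown overnight at 37 °C, and colonies counted at the lowest resolvable dilution. Non-growing P. aeruginosa DSM1117 had been dosed for 24 h in 1:4 CA-MHB (pH 7.4); three biological replicates.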

S. aureus DSM2569 = test: MIC, standard microdilution assay, growing S. aureus; type: cell-based, Staphylococcus aureus; conditions: Staphylococcus aureus, DSM2569; S. aureus; CA-MHB pH 7.4; read-out: MIC (μM) CA-MHB
Method in brief: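 Standard microdilution protocol, triplicate wells. For S. flexneri the growth medium is TSB. The other three strains are grown in HEPES-buffered (40 mM, pH 7.4) CA-MHB, and UPEC is also run at pH 5.5 in LPM containing 30 mM MES.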

non-growing UPEC CFT073 [2] = test: Dilution-regrowth assay (screen, hit validation, dose-response) on stationary-phase UPEC; type: cell-based, Escherichia coli; conditions: Escherichia coli, E. coli, regrowth delay of non-growing bacteria, 24 h treatment, OD600 6 h after 2500-fold dilution, read-out: EC50
Method in brief: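 Regrowth (OD600 after 6 h, 37 °C) of diluted non-growing CFT073, following 24 h compound treatment of 24 h stationary cultures, defines activity relative to untreated control. Screen at 20 µM, validation at 20, 10, 5 µM (duplicates), dose–response in three biological replicates fitted by five-parameter logistic.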

non-growing UPEC CFT073 [3] = test: Dose-dependent killing analysis (CFU spot-plating) of stationary-phase UPEC; type: cell-based, Escherichia coli
Method in brief: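 Killing assessed by CFU counts: overnight 37 °C LB agar spot plates (10 μl drops of 10-fold PBS dilutions) scored at the lowest dilution with distinct colonies. Samples were compound-treated non-growing UPEC CFT073, 200 μl per well. Performed as three biological replicates.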

[4] = test system: non-growing S. aureus DSM2569; test: Dose-dependent killing analysis (CFU spot-plating) of stationary-phase S. aureus; type: cell-based, Staphylococcus aureus; conditions: S. aureus; for log10(CFU/ml) of treated nongrowing bacteria (single replicates): before treatment 9,097
Method in brief: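 Survival was scored as CFU after overnight growth at 37 °C on LB agar, using spots from 10-fold PBS dilutions of treated cultures. Non-growing S. aureus DSM2569 had been exposed to compound for 24 h in 1:4 CA-MHB, pH 7.4. Three biological replicates were run.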

For `NC1CCN(c2nc3c(cc2F)c(=O)c(C(=O)O)cn3-c2ccc(F)cc2F)C1` (stereo not shown) [Tosufloxacin], the “killing, average Δlog10(CFU/ml)” value ([1]; drug concentration 0.1) was 0.209 log10(CFU/ml), the “log10(CFU/ml) of treated nongrowing bacteria (single replicates)” value (shortened to “log10(CFU/ml) … (single replicates)”) ([1]; drug concentration 0.1) was 8.477 log10(CFU/ml) and 8.954 log10(CFU/ml) and 8.602 log10(CFU/ml) and the “killing, average Δlog10(CFU/ml)” value ([1]; drug concentration 0.5) was 1.194 log10(CFU/ml). For the same compound, the “log10(CFU/ml) … (single replicates)” value ([1]; drug concentration 0.5) was 7.477 log10(CFU/ml) and 7.903 log10(CFU/ml) and 7.699 log10(CFU/ml), the “killing, average Δlog10(CFU/ml)” value ([1]; drug concentration 2.5) was 3.719 log10(CFU/ml) and the “log10(CFU/ml) … (single replicates)” value ([1]; drug concentration 2.5) was 5.602 log10(CFU/ml) (2×) and 4.301 log10(CFU/ml). For the same compound, the “killing, average Δlog10(CFU/ml)” value ([1]; drug concentration 10) was 4.787 log10(CFU/ml), the “log10(CFU/ml) … (single replicates)” value ([1]; drug concentration 10) was “=<4 log10(CFU/ml) (2×) and 4.301 log10(CFU/ml)” and the MIC (S. aureus DSM2569) was 0.25 µM (≈ 0.101 µg/mL). The pEC50 (non-growing UPEC CFT073 [2]; LPM pH 5.5) was 4.99, the pEC50 (non-growing UPEC CFT073 [2]; pH 7.4, 1:4 CA-MHB) was 6.12 and the “killing, average Δlog10(CFU/ml)” value (non-growing UPEC CFT073 [3]; E. coli in 1:4 CA-MHB (pH 7.4), drug concentration 0.25) was 0.576 log10(CFU/ml). The “log10(CFU/ml) … (single replicates)” value (non-growing UPEC CFT073 [3]; E. coli in 1:4 CA-MHB (pH 7.4), drug concentration 0.25, before treatment 8.977) was 8.477 log10(CFU/ml) and 8.279 log10(CFU/ml) and 8.447 log10(CFU/ml), the “killing, average Δlog10(CFU/ml)” value (non-growing UPEC CFT073 [3]; E. coli in 1:4 CA-MHB (pH 7.4), drug concentration 0.5) was 0.736 log10(CFU/ml) and the “log10(CFU/ml) … (single replicates)” value (non-growing UPEC CFT073 [3]; E. coli in 1:4 CA-MHB (pH 7.4), drug concentration 0.5, before treatment 8.977) was 8.602 log10(CFU/ml) and 8.041 log10(CFU/ml) and 8.079 log10(CFU/ml). For the same compound, the “killing, average Δlog10(CFU/ml)” value (non-growing UPEC CFT073 [3]; E. coli in 1:4 CA-MHB (pH 7.4), drug concentration 1) was 1.185 log10(CFU/ml), the “log10(CFU/ml) … (single replicates)” value (non-growing UPEC CFT073 [3]; E. coli in 1:4 CA-MHB (pH 7.4), drug concentration 1, before treatment 8.977) was 8.301 log10(CFU/ml) and 7.845 log10(CFU/ml) and 7.230 log10(CFU/ml) and the “killing, average Δlog10(CFU/ml)” value (non-growing UPEC CFT073 [3]; E. coli in 1:4 CA-MHB (pH 7.4), drug concentration 2.5) was 2.064 log10(CFU/ml). The “log10(CFU/ml) … (single replicates)” value (non-growing UPEC CFT073 [3]; E. coli in 1:4 CA-MHB (pH 7.4), drug concentration 2.5, before treatment 8.977) was 7.041 log10(CFU/ml) and 6.699 log10(CFU/ml) and 7.000 log10(CFU/ml), the “killing, average Δlog10(CFU/ml)” value (non-growing UPEC CFT073 [3]; E. coli in 1:4 CA-MHB (pH 7.4), drug concentration 5) was 2.460 log10(CFU/ml) and the “log10(CFU/ml) … (single replicates)” value (non-growing UPEC CFT073 [3]; E. coli in 1:4 CA-MHB (pH 7.4), drug concentration 5, before treatment 8.977) was 6.845 log10(CFU/ml) and 6.230 log10(CFU/ml) and 6.477 log10(CFU/ml). For the same compound, the “killing, average Δlog10(CFU/ml)” value (non-growing UPEC CFT073 [3]; E. coli in 1:4 CA-MHB (pH 7.4), drug concentration 10) was 2.856 log10(CFU/ml), the “log10(CFU/ml) … (single replicates)” value (non-growing UPEC CFT073 [3]; E. coli in 1:4 CA-MHB (pH 7.4), drug concentration 10, before treatment 8.977) was 6.778 log10(CFU/ml) and 5.380 log10(CFU/ml) and 6.204 log10(CFU/ml) and the “killing, average Δlog10(CFU/ml)” value (non-growing UPEC CFT073 [3]; E. coli in LPM (pH 5.5), drug concentration 0.25) was -0.097 log10(CFU/ml). The “log10(CFU/ml) … (single replicates)” value (non-growing UPEC CFT073 [3]; E. coli in LPM (pH 5.5), drug concentration 0.25, before treatment 7.350) was 7.342 log10(CFU/ml) and 7.000 log10(CFU/ml) and 8.000 log10(CFU/ml), the “killing, average Δlog10(CFU/ml)” value (non-growing UPEC CFT073 [3]; E. coli in LPM (pH 5.5), drug concentration 0.5) was 0.356 log10(CFU/ml) and the “log10(CFU/ml) … (single replicates)” value (non-growing UPEC CFT073 [3]; E. coli in LPM (pH 5.5), drug concentration 0.5, before treatment 7.350) was 7.079 log10(CFU/ml) and 6.000 log10(CFU/ml) and 7.903 log10(CFU/ml). For the same compound, the “killing, average Δlog10(CFU/ml)” value (non-growing UPEC CFT073 [3]; E. coli in LPM (pH 5.5), drug concentration 1) was 0.195 log10(CFU/ml), the “log10(CFU/ml) … (single replicates)” value (non-growing UPEC CFT073 [3]; E. coli in LPM (pH 5.5), drug concentration 1, before treatment 7.350) was 7.279 log10(CFU/ml) and 6.342 log10(CFU/ml) and 7.845 log10(CFU/ml) and the “killing, average Δlog10(CFU/ml)” value (non-growing UPEC CFT073 [3]; E. coli in LPM (pH 5.5), drug concentration 2.5) was 0.183 log10(CFU/ml). The “log10(CFU/ml) … (single replicates)” value (non-growing UPEC CFT073 [3]; E. coli in LPM (pH 5.5), drug concentration 2.5, before treatment 7.350) was 7.079 log10(CFU/ml) and 6.519 log10(CFU/ml) and 7.903 log10(CFU/ml), the “killing, average Δlog10(CFU/ml)” value (non-growing UPEC CFT073 [3]; E. coli in LPM (pH 5.5), drug concentration 5) was 0.243 log10(CFU/ml) and the “log10(CFU/ml) … (single replicates)” value (non-growing UPEC CFT073 [3]; E. coli in LPM (pH 5.5), drug concentration 5, before treatment 7.350) was 7.146 log10(CFU/ml) and 6.699 log10(CFU/ml) and 7.477 log10(CFU/ml). The “killing, average Δlog10(CFU/ml)” value (non-growing UPEC CFT073 [3]; E. coli in LPM (pH 5.5), drug concentration 10) was 0.735 log10(CFU/ml), the “log10(CFU/ml) … (single replicates)” value (non-growing UPEC CFT073 [3]; E. coli in LPM (pH 5.5), drug concentration 10, before treatment 7.350) was 6.591 log10(CFU/ml) and 6.255 log10(CFU/ml) and 7.000 log10(CFU/ml) and the “killing, average Δlog10(CFU/ml)” value ([4]; drug concentration 0.1) was 0.037 log10(CFU/ml). For the same compound, the “log10(CFU/ml) … (single replicates)” value ([4]; drug concentration 0.1) was 8.845 log10(CFU/ml) and 9.301 log10(CFU/ml) and 9.033 log10(CFU/ml), the “killing, average Δlog10(CFU/ml)” value ([4]; drug concentration 0.5) was 0.330 log10(CFU/ml) and the “log10(CFU/ml) … (single replicates)” value ([4]; drug concentration 0.5) was 8.690 log10(CFU/ml) and 8.869 log10(CFU/ml) and 8.740 log10(CFU/ml). For the same compound, the “killing, average Δlog10(CFU/ml)” value ([4]; drug concentration 2.5) was 0.522 log10(CFU/ml), the “log10(CFU/ml) … (single replicates)” value ([4]; drug concentration 2.5) was 8.580 log10(CFU/ml) and 8.898 log10(CFU/ml) and 8.248 log10(CFU/ml) and the “killing, average Δlog10(CFU/ml)” value ([4]; drug concentration 10) was 0.688 log10(CFU/ml). For the same compound, the “log10(CFU/ml) … (single replicates)” value ([4]; drug concentration 10) was 8.531 log10(CFU/ml) and 8.663 log10(CFU/ml) and 8.033 log10(CFU/ml).
